Measurements: patent publication US20240245670A1, “DOSING REGIMEN AND PHARMACEUTICAL COMBINATION COMPRISING 3-(1-OXOISOINDOLIN-2-YL)PIPERIDINE-2,6-DIONE DERIVATIVES” (Novartis AG, priority 2018, published 2024)

Assays:
[1] = Preclinical safety observations; format: in vivo
Text: The inclusion/exclusion criteria, dose modification guidelines and safety assessments in this FIH trial account for both the disease indications and preclinical safety profile of I-57 and PDR001. Of note are the provisions put in place for the risk of autoimmune events for both PDR001 and potentially I-57.

[2] = tested on: cynomolgus monkeys; test: 4-week GLP toxicology study in cynomolgus monkeys; format: in vivo
Description: (§1) The starting dose of I-57 selected for this study is supported by 4-week GLP toxicology studies performed in cynomolgus monkeys. […] GLP toxicity studies identified 30 mg/kg as the HNSTD in monkey and supported a starting dose up to 100 mg QD in human (BSA scaled HED and using a safety factor of 6). The selected dose of 20 mg is anticipated to result in a significant but sub-maximal IKZF2 degradation in human PBMCs and TILs (50-90%), based on PK/PD modeling of I-57 exposure and IKZF2 degradation in cynomolgus PBMCs. More IKZF2 degradation may be required to change downstream biology. Therefore, 20 mg is considered safe. Escalation from this starting dose will facilitate the determination of the minimal required dose which provides optimal IKZF2 degradation to impact downstream biological activity.

[3] = PK after single oral dose in cynomolgus monkey (FIG. 4, FIG. 5, Table 13); format: in vivo; settings: for AUC24 h (unbound) / AUC24 h/Dose (unbound) / Cmax (unbound) / Cmax/Dose (unbound): cynomolgus monkey, unbound exposure, n = 3, mean ± SD
Description: (§2) FIG. 4 is a graph showing the PK/PD relationship in the cynomolgus monkey after a single oral of 0.01, 0.1 or 1 mg/kg of Compound I-57.
(§3) FIG. 5. is a graph showing plasma concentration in the cynomolgus monkey of Compound I-57 and IKZF2 expression (as determined by flow cytometry) in FOXP3+ T cells from PBMCs after a single oral of 0.01, 0.1 or 1 mg/kg of Compound I-57.
(§4) The PK/PD relationship of I-57 was examined in cynomolgus monkeys after a single oral dose of 0.01, 0.1 or 1 mg/kg. I-57 plasma concentration and IKZF2 expression (as determined by flow cytometry) in FOXP3+ T cells from PBMCs were determined (FIG. 4 and FIG. 5).

[4] = In vivo non-clinical PK / high dose PK and toxicology exposure; settings: rat; between 3 mg/kg and 300 mg/kg
Description: The in vivo non-clinical PK profile of I-57 was investigated in mouse, rat, dog and cynomolgus monkey using I-57 free base. […] After p.o. administration, the absorption of I-57 was rapid with peak blood concentration (Tmax) occurring between 1 and 4 hours. […] In high dose PK and toxicology studies with I-57 the exposures in mouse, rat and monkey increased with dose.

[5] = ECG (QTc interval) in single dose and 4-week GLP repeat dose study; format: in vivo, monkey
Description: The risk of possible QTc interval prolongation at the starting dose is therefore considered low. QT prolongation may become clinically significant during escalation but are not anticipated to be dose limiting until doses at or above 640 mg. Monitoring and other measures to mitigate potential risk of arrhythmia is addressed in Example 3 below.

[6] = tested on: IKZF2 expression in FOXP3+ T cells from PBMCs; test: PD after single oral dose in cynomolgus monkey: IKZF2 expression by flow cytometry; format: in vivo
Description: as §2, §3, §4
Decreased (percentage change) IKZF2 positive FOXP3-cells, as determined by flow cytometry, were detectable at 4h post dose in the 1 mg/kg and 0.1 mg/kg groups, reaching maximum at 12-24 hrs post-dose and maintaining this maximum for 12-24 hrs.

[7] = molecular target: T1, IKZF2 (Oryctolagus cuniculus, UniProt A0A5F9CPW0); test: IKZF2 degradation in primary PBMCs in vitro (FIG. 3); format: cell-based; settings: primary rabbit PBMCs; concentrations up to 10 μM
T1 construct: endogenous in cells; host or cells: primary rabbit PBMCs
T1 sequence (A0A5F9CPW0 1-526): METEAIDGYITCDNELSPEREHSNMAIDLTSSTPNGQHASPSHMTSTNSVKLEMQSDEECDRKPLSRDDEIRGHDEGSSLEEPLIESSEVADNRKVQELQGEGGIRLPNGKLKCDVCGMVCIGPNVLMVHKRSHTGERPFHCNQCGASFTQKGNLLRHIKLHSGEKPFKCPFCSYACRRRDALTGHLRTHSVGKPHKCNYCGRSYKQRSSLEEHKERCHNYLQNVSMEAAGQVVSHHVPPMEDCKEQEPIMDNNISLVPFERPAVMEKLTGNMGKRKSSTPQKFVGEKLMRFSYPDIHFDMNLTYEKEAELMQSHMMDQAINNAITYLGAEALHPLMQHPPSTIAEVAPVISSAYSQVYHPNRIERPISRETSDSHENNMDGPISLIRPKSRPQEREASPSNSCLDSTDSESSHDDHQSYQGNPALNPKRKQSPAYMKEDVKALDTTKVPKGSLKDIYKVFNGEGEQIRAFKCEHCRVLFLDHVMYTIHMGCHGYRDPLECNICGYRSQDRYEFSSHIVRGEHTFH
Description: FIG. 3. is a bar graph showing the degradation of IKZF2 in primary PBMCs obtained from rabbit, dog, pig, cynomolgus monkey and human, and in primary splenocytes of mouse and rat and treated with Compound I-57.
I-57 mediated degradation of IKZF2 was assessed in primary PBMCs obtained from rabbit, dog, pig, cynomolgus monkey, and human, and in primary splenocytes of mouse and rat. […] Species-specificity due to species specific alteration CRBN primary structure have previously been described with other compounds known to interact with the CRBN ubiquitin ligase complex to elicit protein specific degradation (Krönke et al, 2015).

[8] = tested on: monkey IKZF2; test: IKZF2 degradation, species relevance (monkey)
Description: as §1

[9] = Toxicology studies incl. 4-week GLP studies in rats and cynomolgus monkeys; format: in vivo; settings: from 4-week GLP toxicology studies in rats (30, 100, 300 mg/kg/day) and cynomolgus monkeys (3, 10, 30 mg/kg/day)
Text: The non-clinical safety profile of I-57 was established in vitro, and in vivo in rats and cynomolgus monkeys in studies up to 4-weeks duration. Based on the outcome of these studies, QTc interval prolongation was identified as the principal safety signal for I-57. There were other toxicities such as diarrhea and vomiting in monkeys, and mortality, clinical signs and target organ toxicities in rats; however, these occurred at exposures far above those expected to result in clinical activity.
Preclinical safety data in 4-week GLP toxicology studies in rats (30, 100 and 300 mg/kg/day) and cynomolgus monkeys (3, 10 and 30 mg/kg/day) provide maximum recommended starting dose (MRSD) of 100 mg in humans. Based on non-clinical animal models including AdT studies, cynomolgus vaccination studies and cynomolgus PK/PD studies (See Example 1) I-57 at 20 mg is expected to result in submaximal IKZF2 degradation in PBMCs and tumor. This is considered safe and will permit PK/PD characterization and determination of the lowest dose of I-57 at which maximal detectable IKZF2 degradation is achieved.

[10] = single oral dose of 0.01, 0.1 or 1 mg/kg

## O=C1CCC(N2Cc3cc(C4CCN(Cc5ccccc5)CC4)ccc3C2=O)C(=O)N1 (stereo not drawn) [Compound I-57, 3-(5-(1-benzylpiperidin-4-yl)-1-oxoisoindolin-2-yl)piperidine-2,6-dione]
[1]
  preclinical observation (ECG): QTc prolongation
  preclinical observation (urine): hematuria and proteinuria
[2]; derived from monkey HNSTD
  supported starting dose in human (BSA scaled HED, safety factor of 6): up to 100 mg QD
[2]; monkey, 4-week GLP toxicity studies
  HNSTD: 30 mg/kg
[3]; single oral dose 0.01 mg/kg
  AUC24 h (unbound): 14.1 ± 4.72 ng·h/mL
  AUC24 h/Dose (unbound): 1410 ± 472 (ng · h/mL)/(mg/kg)
  Cmax (unbound): 2.11 ± 0.69 ng/mL
  Cmax/Dose (unbound): 211 ± 69.1 (ng/mL)/(mg/kg)
[3]; single oral dose 0.1 mg/kg
  AUC24 h (unbound): 102 ± 13.2 ng·h/mL
  AUC24 h/Dose (unbound): 1020 ± 136 (ng · h/mL)/(mg/kg)
  Cmax (unbound): 13.4 ± 2.77 ng/mL
  Cmax/Dose (unbound): 134 ± 27.7 (ng/mL)/(mg/kg)
[3]; single oral dose 1 mg/kg
  AUC24 h (unbound): 610 ± 236 ng·h/mL
  AUC24 h/Dose (unbound): 610 ± 236 (ng · h/mL)/(mg/kg)
  Cmax (unbound): 102 ± 45.3 ng/mL
  Cmax/Dose (unbound): 102 ± 45.3 (ng/mL)/(mg/kg)
[3]; [10]
  dose proportionality of observed exposures: slightly less than dose proportional
[4]
  increase in AUC with dose: roughly dose proportional
[5]; monkeys at 3 mg/kg
  free Cmax in monkeys relative to free Cmax predicted at the clinical starting dose of 20 mg: 40 times
[5]; monkeys, 3 mg/kg
  QT effects: no QT effects
[5]; monkeys, coinciding with Tmax
  time of highest magnitude of QTc effect: 0.5 to 5.5 h
[6]; post dose, 1 mg/kg and 0.1 mg/kg groups
  time at which decreased IKZF2 positive FOXP3 cells were detectable: 4 h
[6]; single oral dose
  duration for which maximum decrease was maintained: 12 to 24 h
[6]; [10]
  dose dependence of decrease in IKZF2 positive cells: dose dependent
[7]
  degradation of IKZF2: Degradation was observed
[8]
  degradation of monkey IKZF2: can degrade monkey
[9]
  maximum recommended starting dose (MRSD) in humans: 100 mg
